Reference: the supplement of paper PMC10307832

How the values were obtained:
Assay in all cases: relative viability (nuclei count vs DMSO), 5 days (fraction); higher = more cells survive
Metformin + Alpelisib = compound: CN(C)C(=N)NC(=N)N [Metformin] + Cc1nc(NC(=O)N2CCC[C@H]2C(N)=O)sc1-c1ccnc(C(C)(C)C(F)(F)F)c1 [Alpelisib] (partner 2 µM)
Procedure, shortened: (§1)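 Lung cancer cell lines in 1536-well plates got either a single drug or a fixed anchor-drug dose together with five library-drug doses (not always all listed) in √10 steps, by pin tool, on the day after seeding. Nuclei were counted after 5 days, and relative viability is the treated-to-vehicle ratio of nuclei counts. Values are medians of duplicate plates.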

Metformin + Vorinostat = compound: CN(C)C(=N)NC(=N)N [Metformin] + O=C(CCCCCCC(=O)Nc1ccccc1)NO [Vorinostat] (partner 1 µM)
Procedure, shortened: as §1

Apatinib + Alpelisib = compound: N#CC1(c2ccc(NC(=O)c3cccnc3NCc3ccncc3)cc2)CCCC1 [Apatinib] + Cc1nc(NC(=O)N2CCC[C@H]2C(N)=O)sc1-c1ccnc(C(C)(C)C(F)(F)F)c1 [Alpelisib] (partner 2 µM)
Procedure, shortened: as §1

Apatinib + Vorinostat = compound: N#CC1(c2ccc(NC(=O)c3cccnc3NCc3ccncc3)cc2)CCCC1 [Apatinib] + O=C(CCCCCCC(=O)Nc1ccccc1)NO [Vorinostat] (partner 1 µM)
Procedure, shortened: as §1

Cell Line: NCI-H460
- relative viability (Metformin + Alpelisib; first compound 31.62 µM): 0.471
- relative viability (Metformin + Alpelisib; first compound 100 µM): 0.534
- relative viability (Metformin + Alpelisib; first compound 316.23 µM): 0.502
- relative viability (Metformin + Alpelisib; first compound 1000 µM): 0.471
- relative viability (Metformin + Vorinostat; first compound 31.62 µM): 0.667
- relative viability (Metformin + Vorinostat; first compound 100 µM): 0.542
- relative viability (Metformin + Vorinostat; first compound 316.23 µM): 0.581
- relative viability (Metformin + Vorinostat; first compound 1000 µM): 0.659
- relative viability (Apatinib + Alpelisib; first compound 0.08 µM): 0.557
- relative viability (Apatinib + Alpelisib; first compound 0.253 µM): 0.478
- relative viability (Apatinib + Alpelisib; first compound 0.8 µM): 0.475
- relative viability (Apatinib + Alpelisib; first compound 2.53 µM): 0.498
- relative viability (Apatinib + Alpelisib; first compound 8 µM): 0.479
- relative viability (Apatinib + Vorinostat; first compound 0.08 µM): 0.741
- relative viability (Apatinib + Vorinostat; first compound 0.253 µM): 0.73
- relative viability (Apatinib + Vorinostat; first compound 0.8 µM): 0.623
- relative viability (Apatinib + Vorinostat; first compound 2.53 µM): 0.577
- relative viability (Apatinib + Vorinostat; first compound 8 µM): 0.417
